From PMC3961306, “Comparison of the Cancer Gene Targeting and Biochemical Selectivities of All Targeted Kinase Inhibitors Approved for Clinical Use” (PLoS ONE, 2014)

Legend:
Experiment in all cases: Kinase profiling in a biochemical assay panel (mobility shift assays and ELISA), %-inhibition at 1 μM; selectivity entropy
[1] = target: T1, panel of more than 300 wild-type and mutant kinases (313 kinase panel) (Homo sapiens, UniProt O14757); conditions: kinase CHK1; 1 μM compound
T1 sequence (O14757 1-476): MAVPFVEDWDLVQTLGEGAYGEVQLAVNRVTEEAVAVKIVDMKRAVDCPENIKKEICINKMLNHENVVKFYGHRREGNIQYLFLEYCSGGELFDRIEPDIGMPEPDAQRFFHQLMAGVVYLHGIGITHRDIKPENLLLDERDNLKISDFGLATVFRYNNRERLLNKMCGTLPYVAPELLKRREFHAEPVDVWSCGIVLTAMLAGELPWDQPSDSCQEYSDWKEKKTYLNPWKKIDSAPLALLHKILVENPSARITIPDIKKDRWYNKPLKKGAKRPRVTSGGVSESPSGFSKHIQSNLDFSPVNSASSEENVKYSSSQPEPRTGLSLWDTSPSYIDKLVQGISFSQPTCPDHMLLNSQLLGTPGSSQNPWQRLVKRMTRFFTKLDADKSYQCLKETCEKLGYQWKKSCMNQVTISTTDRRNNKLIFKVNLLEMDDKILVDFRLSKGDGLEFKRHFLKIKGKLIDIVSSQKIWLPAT

[2] = target: panel of more than 300 wild-type and mutant kinases (313 kinase panel) (Homo sapiens, UniProt O95819)
[3] = target: panel of more than 300 wild-type and mutant kinases (313 kinase panel) (Homo sapiens, UniProt P05771); conditions: kinase PKCβ1; 1 μM
[4] = target: panel of more than 300 wild-type and mutant kinases (313 kinase panel) (Homo sapiens, UniProt P19784)
panel of more than 300 wild-type and mutant kinases (313 kinase panel) (Homo sapiens, UniProt P19784), sequence (P19784 whole entry, change not shown): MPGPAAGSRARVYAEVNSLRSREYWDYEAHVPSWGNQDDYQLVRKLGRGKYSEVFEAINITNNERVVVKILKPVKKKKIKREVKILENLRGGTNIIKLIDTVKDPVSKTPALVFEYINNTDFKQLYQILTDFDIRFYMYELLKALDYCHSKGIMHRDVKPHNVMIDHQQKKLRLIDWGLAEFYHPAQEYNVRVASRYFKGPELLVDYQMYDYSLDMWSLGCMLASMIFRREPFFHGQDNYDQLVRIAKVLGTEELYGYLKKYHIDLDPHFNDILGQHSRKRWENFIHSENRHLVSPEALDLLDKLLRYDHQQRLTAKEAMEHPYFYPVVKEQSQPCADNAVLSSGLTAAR

[5] = target: panel of more than 300 wild-type and mutant kinases (313 kinase panel) (Homo sapiens, UniProt P22455); conditions: kinase FGFR4; compound at 1 μM
[6] = target: panel of more than 300 wild-type and mutant kinases (313 kinase panel) (Homo sapiens, UniProt P22607, K650M); conditions: kinase FGFR3(K650M); compound at 1 μM
panel of more than 300 wild-type and mutant kinases (313 kinase panel) (Homo sapiens, UniProt P22607, K650M), sequence (P22607 23-806 K650M): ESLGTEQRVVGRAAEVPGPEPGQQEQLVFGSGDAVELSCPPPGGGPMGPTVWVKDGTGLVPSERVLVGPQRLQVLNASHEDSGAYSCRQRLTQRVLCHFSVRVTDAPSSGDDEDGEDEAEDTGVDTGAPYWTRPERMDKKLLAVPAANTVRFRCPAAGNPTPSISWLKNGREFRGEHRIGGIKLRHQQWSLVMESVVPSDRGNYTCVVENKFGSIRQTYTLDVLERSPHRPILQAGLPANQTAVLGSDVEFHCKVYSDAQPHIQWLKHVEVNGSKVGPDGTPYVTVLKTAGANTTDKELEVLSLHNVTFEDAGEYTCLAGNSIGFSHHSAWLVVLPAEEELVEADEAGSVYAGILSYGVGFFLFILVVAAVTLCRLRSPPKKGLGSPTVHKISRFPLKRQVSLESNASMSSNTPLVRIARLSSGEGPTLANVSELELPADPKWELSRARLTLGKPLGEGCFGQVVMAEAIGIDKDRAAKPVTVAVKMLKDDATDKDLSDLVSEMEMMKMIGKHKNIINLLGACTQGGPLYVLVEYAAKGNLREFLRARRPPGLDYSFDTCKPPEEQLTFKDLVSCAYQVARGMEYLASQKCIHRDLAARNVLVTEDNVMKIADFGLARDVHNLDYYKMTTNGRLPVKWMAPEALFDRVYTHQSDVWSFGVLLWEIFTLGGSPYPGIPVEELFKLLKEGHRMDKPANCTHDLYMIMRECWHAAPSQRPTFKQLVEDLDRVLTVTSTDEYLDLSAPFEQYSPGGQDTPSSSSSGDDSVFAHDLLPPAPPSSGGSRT

[7] = target: panel of more than 300 wild-type and mutant kinases (313 kinase panel) (Homo sapiens, UniProt Q00534); conditions: kinase CDK6/CycD3; 1 μM compound
[8] = target: panel of more than 300 wild-type and mutant kinases (313 kinase panel) (Homo sapiens, UniProt Q14289)
panel of more than 300 wild-type and mutant kinases (313 kinase panel) (Homo sapiens, UniProt Q14289), sequence (Q14289 whole entry, change not shown): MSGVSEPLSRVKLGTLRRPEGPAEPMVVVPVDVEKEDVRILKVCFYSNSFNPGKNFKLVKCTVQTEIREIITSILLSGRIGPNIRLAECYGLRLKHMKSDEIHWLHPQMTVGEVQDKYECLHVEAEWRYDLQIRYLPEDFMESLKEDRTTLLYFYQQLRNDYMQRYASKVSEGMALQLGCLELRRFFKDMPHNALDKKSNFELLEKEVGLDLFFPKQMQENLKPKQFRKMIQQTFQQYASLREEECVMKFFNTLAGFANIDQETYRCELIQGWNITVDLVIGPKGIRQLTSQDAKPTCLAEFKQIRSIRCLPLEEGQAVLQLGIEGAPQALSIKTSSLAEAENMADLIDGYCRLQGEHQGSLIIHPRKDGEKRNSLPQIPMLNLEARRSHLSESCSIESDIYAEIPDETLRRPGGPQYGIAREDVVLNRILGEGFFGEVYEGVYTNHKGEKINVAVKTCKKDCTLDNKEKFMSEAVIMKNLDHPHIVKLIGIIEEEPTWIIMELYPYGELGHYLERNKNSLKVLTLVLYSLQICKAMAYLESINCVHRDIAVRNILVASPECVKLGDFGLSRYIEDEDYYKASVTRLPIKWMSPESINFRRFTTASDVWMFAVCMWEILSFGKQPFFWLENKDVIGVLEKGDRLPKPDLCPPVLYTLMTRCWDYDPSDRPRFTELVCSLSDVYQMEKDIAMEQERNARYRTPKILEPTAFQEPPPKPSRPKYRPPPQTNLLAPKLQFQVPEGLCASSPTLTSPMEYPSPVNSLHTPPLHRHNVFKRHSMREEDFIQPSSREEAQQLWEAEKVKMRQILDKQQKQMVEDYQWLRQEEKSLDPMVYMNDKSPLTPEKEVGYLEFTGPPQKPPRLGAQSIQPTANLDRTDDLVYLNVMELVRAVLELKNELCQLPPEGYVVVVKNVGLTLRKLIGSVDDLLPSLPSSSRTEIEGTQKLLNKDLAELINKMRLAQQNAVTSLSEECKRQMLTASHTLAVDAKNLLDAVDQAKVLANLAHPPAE

[9] = target: panel of more than 300 wild-type and mutant kinases (313 kinase panel) (Homo sapiens, UniProt Q15119); conditions: kinase PDHK2; 1 μM
[10] = target: panel of more than 300 wild-type and mutant kinases (313 kinase panel) (Homo sapiens, UniProt Q15375); conditions: kinase EPHA7; compound at 1 μM
panel of more than 300 wild-type and mutant kinases (313 kinase panel) (Homo sapiens, UniProt Q15375), sequence (Q15375 28-998, change not shown): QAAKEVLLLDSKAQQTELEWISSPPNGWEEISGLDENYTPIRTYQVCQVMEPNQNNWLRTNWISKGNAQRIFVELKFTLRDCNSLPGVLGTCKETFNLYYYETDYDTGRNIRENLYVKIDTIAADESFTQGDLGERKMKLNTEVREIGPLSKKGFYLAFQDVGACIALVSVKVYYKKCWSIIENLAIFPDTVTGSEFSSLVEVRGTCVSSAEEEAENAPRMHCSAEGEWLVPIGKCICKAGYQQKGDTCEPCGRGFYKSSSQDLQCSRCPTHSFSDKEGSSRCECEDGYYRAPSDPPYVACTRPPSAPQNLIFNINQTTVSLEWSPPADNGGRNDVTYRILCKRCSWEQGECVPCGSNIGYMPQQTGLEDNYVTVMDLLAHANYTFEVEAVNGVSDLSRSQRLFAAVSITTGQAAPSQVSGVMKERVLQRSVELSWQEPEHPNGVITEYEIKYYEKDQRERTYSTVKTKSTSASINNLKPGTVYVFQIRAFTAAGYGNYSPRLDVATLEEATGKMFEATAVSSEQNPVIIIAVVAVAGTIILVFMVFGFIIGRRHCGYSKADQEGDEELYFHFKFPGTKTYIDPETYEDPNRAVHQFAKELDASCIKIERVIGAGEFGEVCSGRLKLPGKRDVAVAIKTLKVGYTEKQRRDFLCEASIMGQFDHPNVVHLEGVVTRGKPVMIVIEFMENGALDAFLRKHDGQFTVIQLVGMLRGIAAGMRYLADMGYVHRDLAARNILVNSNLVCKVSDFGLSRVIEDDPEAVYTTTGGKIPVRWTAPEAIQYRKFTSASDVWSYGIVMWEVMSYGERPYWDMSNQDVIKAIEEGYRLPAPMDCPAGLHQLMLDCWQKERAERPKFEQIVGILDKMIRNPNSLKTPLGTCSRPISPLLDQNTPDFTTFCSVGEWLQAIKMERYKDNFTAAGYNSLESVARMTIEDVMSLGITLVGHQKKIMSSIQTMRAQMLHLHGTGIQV

[11] = target: panel of more than 300 wild-type and mutant kinases (313 kinase panel) (Homo sapiens, UniProt Q7KZI7); conditions: kinase MARK2; compound at 1 μM
[12] = target: panel of more than 300 wild-type and mutant kinases (313 kinase panel) (Homo sapiens, UniProt Q9BYP7); conditions: kinase WNK3; compound at 1 μM
panel of more than 300 wild-type and mutant kinases (313 kinase panel) (Homo sapiens, UniProt Q9BYP7), sequence (Q9BYP7 whole entry, change not shown): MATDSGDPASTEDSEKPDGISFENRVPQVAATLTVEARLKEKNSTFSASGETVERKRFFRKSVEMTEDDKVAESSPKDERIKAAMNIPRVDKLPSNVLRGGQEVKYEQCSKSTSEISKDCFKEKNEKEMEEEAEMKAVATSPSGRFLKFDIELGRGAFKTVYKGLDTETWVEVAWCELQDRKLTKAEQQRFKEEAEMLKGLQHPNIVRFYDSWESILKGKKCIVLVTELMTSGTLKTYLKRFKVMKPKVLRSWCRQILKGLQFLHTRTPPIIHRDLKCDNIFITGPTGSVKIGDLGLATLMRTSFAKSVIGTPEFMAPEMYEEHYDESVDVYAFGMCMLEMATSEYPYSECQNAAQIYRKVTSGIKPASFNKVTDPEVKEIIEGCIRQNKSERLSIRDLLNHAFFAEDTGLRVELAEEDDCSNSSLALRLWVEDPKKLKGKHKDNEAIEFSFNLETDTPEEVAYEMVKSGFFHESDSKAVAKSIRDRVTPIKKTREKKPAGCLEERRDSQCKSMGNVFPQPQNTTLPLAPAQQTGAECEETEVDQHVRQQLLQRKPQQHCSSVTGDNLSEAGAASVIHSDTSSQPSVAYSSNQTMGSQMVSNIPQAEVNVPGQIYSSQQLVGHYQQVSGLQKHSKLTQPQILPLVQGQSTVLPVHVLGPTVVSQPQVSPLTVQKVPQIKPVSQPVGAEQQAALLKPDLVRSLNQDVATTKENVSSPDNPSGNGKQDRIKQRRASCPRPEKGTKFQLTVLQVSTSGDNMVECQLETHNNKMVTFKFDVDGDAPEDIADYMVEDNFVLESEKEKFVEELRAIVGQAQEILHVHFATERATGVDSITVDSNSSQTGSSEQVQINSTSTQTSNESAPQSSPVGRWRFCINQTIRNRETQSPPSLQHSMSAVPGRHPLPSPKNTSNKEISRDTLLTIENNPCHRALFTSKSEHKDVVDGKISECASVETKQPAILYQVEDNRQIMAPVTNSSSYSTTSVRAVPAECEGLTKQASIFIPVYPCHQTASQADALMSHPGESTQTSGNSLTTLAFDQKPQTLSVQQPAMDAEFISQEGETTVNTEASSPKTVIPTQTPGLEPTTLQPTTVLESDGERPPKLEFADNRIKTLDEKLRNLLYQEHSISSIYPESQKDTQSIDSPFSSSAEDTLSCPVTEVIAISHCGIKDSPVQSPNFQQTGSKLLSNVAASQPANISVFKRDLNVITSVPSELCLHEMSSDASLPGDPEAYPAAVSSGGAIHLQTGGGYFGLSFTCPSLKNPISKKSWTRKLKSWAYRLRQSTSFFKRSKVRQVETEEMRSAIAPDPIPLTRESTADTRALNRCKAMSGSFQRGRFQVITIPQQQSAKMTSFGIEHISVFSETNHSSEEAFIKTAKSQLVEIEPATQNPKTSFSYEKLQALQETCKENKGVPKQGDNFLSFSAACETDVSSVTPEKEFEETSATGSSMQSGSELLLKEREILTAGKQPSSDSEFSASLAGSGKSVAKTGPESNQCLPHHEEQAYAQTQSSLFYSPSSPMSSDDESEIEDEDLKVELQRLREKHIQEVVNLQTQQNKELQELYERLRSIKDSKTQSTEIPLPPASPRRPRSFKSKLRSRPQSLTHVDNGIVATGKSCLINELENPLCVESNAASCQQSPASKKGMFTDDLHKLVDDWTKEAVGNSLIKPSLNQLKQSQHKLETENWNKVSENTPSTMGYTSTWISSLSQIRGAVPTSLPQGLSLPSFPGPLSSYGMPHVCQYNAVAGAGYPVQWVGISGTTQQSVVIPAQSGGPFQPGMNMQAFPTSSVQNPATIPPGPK

[13] = target: T2, panel of more than 300 wild-type and mutant kinases (313 kinase panel) (Homo sapiens, UniProt Q9H093)
T2 sequence (Q9H093 1-628): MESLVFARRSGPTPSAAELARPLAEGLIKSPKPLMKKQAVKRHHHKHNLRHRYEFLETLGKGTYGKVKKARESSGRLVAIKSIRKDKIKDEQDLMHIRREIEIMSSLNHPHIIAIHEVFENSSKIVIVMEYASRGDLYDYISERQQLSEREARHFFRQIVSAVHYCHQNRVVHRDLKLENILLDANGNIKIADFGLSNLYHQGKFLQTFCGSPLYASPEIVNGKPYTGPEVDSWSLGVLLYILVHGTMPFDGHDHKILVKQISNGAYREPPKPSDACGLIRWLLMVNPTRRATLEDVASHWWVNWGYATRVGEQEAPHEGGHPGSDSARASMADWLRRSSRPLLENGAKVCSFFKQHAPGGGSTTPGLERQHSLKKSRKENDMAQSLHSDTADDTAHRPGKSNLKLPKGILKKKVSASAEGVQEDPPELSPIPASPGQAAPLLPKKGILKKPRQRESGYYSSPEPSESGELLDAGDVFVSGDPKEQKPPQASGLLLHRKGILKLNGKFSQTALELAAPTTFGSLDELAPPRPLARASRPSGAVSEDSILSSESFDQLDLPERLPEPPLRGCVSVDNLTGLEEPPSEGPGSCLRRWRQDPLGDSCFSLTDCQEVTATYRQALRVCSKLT

[14] = target: panel of more than 300 wild-type and mutant kinases (313 kinase panel) (Homo sapiens, UniProt Q9UPE1); conditions: kinase MSSK1; 1 μM
[15] = target: panel of more than 300 wild-type and mutant kinases (313 kinase panel) (Homo sapiens, UniProt Q9Y3S1); conditions: kinase WNK2; compound at 1 μM

Compound | %-inhibition, CHK1 [1] [%] | %-inhibition of HGK ([2]; 1 µM) [%] | %-inhibition of PKCβ1 [3] [%] | %-inhibition, CK2α2/β ([4]; 1 µM) [%] | %-inhibition of FGFR4 [5] [%] | %-inhibition of FGFR3(K650M) [6] [%] | %-inhibition, CDK6/CycD3 [7] [%] | %-inhibition of PYK2 ([8]; 1 µM) [%] | %-inhibition of PDHK2 [9] [%] | %-inhibition of EPHA7 [10] [%] | %-inhibition of MARK2 [11] [%] | %-inhibition of WNK3 [12] [%] | %-inhibition of NuaK2 ([13]; 1 µM) [%] | %-inhibition of MSSK1 [14] [%] | %-inhibition of WNK2 [15] [%] | %-inhibition of HGK ([2]; kinase HGK, compound at 1 μM) [%] | %-inhibition, CK2α2/β ([4]; kinase CK2α2/β, 1 μM compound) [%] | %-inhibition of PYK2 ([8]; kinase PYK2, 1 μM) [%] | %-inhibition of NuaK2 ([13]; kinase NuaK2, 1 μM) [%]
Cc1cn(-c2cc(NC(=O)c3ccc(C)c(Nc4nccc(-c5cccnc5)n4)c3)cc(C(F)(F)F)c2)cn1 [nilotinib] | -15 | 4 | 3.41 | -4.26 | -7.46 | -21 | -23 | -63 | 0.549 | 19 | 0.732 | -7 | -44 | -17 | -8 |  |  |  | 
COc1cc2nccc(Oc3ccc(NC(=O)C4(C(=O)Nc5ccc(F)cc5)CC4)cc3)c2cc1OC [cabozantinib] | 4.42 |  | 1.48 |  | 8 | 10 | 0.312 |  | -1.54 | 99 | -4 | 20 |  | 32 | 6.43 | 21 | 9 | 91 | 1.63
